“Also recorded” adds a separate entry of the source.
What was measured:
[1] = system: mouse oligodendrocyte progenitor cells (OPCs); experiment: Mouse OPC differentiation with IRX4204 and T3; type: cell-based; settings: 5-day treatment, 96-well plates
Description: OPCs were derived from plp-EGFP expressing mice.
Therapeutic agents were tested in 96-well plates (6 wells per concentration). […] All media contained 0.1% DMSO. At the end of the 5-day treatment, cells were imaged on Cellomics in two channels and algorithms were used to count nuclei and EGFP+oligodendrocytes.

EAE in SJL mice = EAE in SJL mice (PLP peptide); type: in vivo
Description: To determine whether a RXR agonist can attenuate multiple sclerosis, SJL mice were immunized to induce EAE by s.c. injection at the base of their spine with 200 μL of adjuvant containing 200 μg proteolipid proteins (139-151) (PLP peptide; Peptides International, Louisville, Ky.) and 400 μg of non-viable M. tuberculosis H37 desiccate emulsified in a mixture of incomplete Freund's adjuvant and PBS. Mice were also given 150 ng of pertussis toxin in PBS i.p. on the same day as PLP emulsion injection and 2 days later. […] Mice were scored using the scale described in Example 3.

LXRα/RXR = LXRα/RXR transactivation assay (CV-1 cells); type: cell-based; settings: 20 hr; relative to T0901317
From the text: (§1) For PPARγ: CV-1 cells were transfected with 3×(rAOX/DR1)-tk-Luc reporter gene and an expression vector for PPARγ. For FXR:CV-1 cells were transfected with 3×(IBABP/IRI)-tk-Luc reporter gene and vectors for FXR and RXRα. For LXR:CV-1 cells were transfected with 3×(PLTP/LXRE)-tk-Luc reporter gene with vectors for LXRα or LXRβ. For Nurr1: COS 7 cells were transfected with 3×NBRE-tk-luc reporter gene and full length Nurr-1 with or without full-length RXRα plasmid. […] Luciferase data were normalized to co-transfected β-gal activity. Luciferase activity was expressed as percent of maximal activity obtained using specific agonists. Rosiglitazone (PPARγ), GW4064 (FXR), T0901317 (LXR).

[2] = system: CNS infiltrating leukocytes in EAE C57BL/6 (B6) mice; experiment: CNS infiltrating cells in EAE B6 mice (FACS); type: in vivo; settings: day 20 after immunization, vs vehicle control
Description: To determine whether a RXR agonist can reduce central nervous system (CNS) infiltrating cells, C57BL/6 (B6) mice were treated as described in Example 6. On day 20 after immunization, mice were sacrificed and perfused with phosphate buffered saline (PBS). Brain and spinal cord tissue was isolated, digested with DNase and LIBERASE DL® (Roche Diagnostics, Indianapolis, Ind.) for 30 minutes, and homogenized through 70 micron nylon mesh filters. Resulting cells were placed over a Percoll gradient to remove myelin. The remaining cells (microglia and CNS infiltrating cells) were counted, stained for molecules of interest, and run on a flow cytometer. Based on the frequencies obtained by FACS of these cell populations, total cell numbers of CNS infiltrating leukocytes expressing CD45, including CD4^+ T cells and CD11c^+ CD11b^+ myeloid dendritic cells (DC), were calculated.

[3] = system: focal demyelination of caudal cerebellar peduncles in rats; experiment: Ethidium bromide focal demyelination in one year old rats; type: in vivo; settings: IRX4204 10 mg/kg/day oral, thyroxine 20 ng/g s.c., day 7 to 21
Description: The experiment uses rats of relatively advanced age (1 year) since such rats undergo remyelination in a less efficient manner, thereby providing data that are more relevant to the clinical treatment of human patients with multiple sclerosis or other demyelination disorders.
Focal demyelination is induced in one year old rats (approximately 300 g in weight) by injecting stereotactically 5 μl of ethidium bromide solution (0.01% vol/vol in saline) in a bilateral manner into the caudal cerebellar peduncles (CCP). […] The rats are killed on day 24 post-ethidium bromide treatment for analysis of remyelination by quantitative polymerase chain reaction (qPCR) and microscopy.

[4] = system: oligodendrocyte precursor cells (OPCs); experiment: OPC differentiation into oligodendrocytes (PLP-EGFP, Example 7); type: cell-based, mouse; settings: compared to negative control (DMSO)
From the text: OPCs were generated from a neurosphere culture of E14.5 PLP-EGFP (on C57BL/6J background) mouse brains. […] The EGFP expressing cells were quantified with Cellomics Neuronal Profiling Algorithm.
The EGFP expressing cells in controls and all compounds were quantified with Cellomics Neuronal Profiling Algorithm.

[5] = system: cuprizone+rapamycin (CR) demyelination in C57BL/6J mice
EAE in B6 mice = experiment: EAE dose titration in B6 mice with spleen and CNS flow analysis; type: in vivo
Description: A dose titration experiment was also conducted in EAE mice. EAE was induced in 28 B6 mice with MOG/CFA and PT as above. Mice were scored on day 7 as indicated above and divided into groups by score so means are as equal as possible.
At the completion of the experiment, the vehicle control and 200 μg/day groups were euthanized and spleen and CNS samples obtained.

LXRβ/RXR = LXRβ/RXR transactivation assay (CV-1 cells); type: cell-based; settings: 20 hr; relative to T0901317
From the text: as §1

RXRα = target: T1, RXRα (Homo sapiens, UniProt P19793); settings: transactivation assays
T1 sequence (P19793 1-462): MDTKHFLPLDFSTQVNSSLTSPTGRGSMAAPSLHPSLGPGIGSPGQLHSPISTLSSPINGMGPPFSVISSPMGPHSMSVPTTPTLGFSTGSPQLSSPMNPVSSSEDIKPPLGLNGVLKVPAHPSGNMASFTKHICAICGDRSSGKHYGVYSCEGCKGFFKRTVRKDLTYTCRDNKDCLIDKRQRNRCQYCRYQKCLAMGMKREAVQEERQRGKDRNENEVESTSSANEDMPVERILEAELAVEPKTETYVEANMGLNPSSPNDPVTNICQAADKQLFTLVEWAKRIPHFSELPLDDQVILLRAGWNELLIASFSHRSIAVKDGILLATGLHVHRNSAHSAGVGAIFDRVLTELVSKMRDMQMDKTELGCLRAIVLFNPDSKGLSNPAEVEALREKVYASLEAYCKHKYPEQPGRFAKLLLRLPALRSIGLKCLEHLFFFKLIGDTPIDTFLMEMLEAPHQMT
Description: To determine whether a RXR agonist can mediate its effects via RXRα receptor homodimers, RXRβ receptor homodimers, RXRγ receptor homodimers, or any combination thereof, or the corresponding RAR/RXR heterodimers, receptor-mediated transactivation assays were performed. For transactivation assays assessing RXR homodimer signaling, CV-1 cells were transfected with 1) an expression construct including a full length RXRα, RXRβ, or RXRγ; and 2) a rCRBPII/RXRE-tk-Luc reporter construct that included RXR homodimer-specific RXRE/DR1 responsive element linked to a luciferase gene. For transactivation assays assessing RAR/RXR heterodimer signaling, CV-1 cells were transfected with 1) an expression construct comprising a fusion protein including an estrogen receptor (ER) DNA binding domain linked to the ligand binding domain of RARα, RARβ, or RARγ and 2) a ERE-tk-Luc reporter construct that included an estrogen receptor responsive element linked to a luciferase gene. […] Data are mean values±SE from five independent experiments.

Nurr1/RXR heterodimer = Nurr1/RXR heterodimer (Homo sapiens, UniProt P19793); experiment: Nurr1/RXR transactivation assay (COS 7 cells, NBRE-tk-luc); type: cell-based; settings: Nurr-1 with or without RXRα
Chain of Nurr1/RXR heterodimer (P43354 whole entry partner, one chain of several): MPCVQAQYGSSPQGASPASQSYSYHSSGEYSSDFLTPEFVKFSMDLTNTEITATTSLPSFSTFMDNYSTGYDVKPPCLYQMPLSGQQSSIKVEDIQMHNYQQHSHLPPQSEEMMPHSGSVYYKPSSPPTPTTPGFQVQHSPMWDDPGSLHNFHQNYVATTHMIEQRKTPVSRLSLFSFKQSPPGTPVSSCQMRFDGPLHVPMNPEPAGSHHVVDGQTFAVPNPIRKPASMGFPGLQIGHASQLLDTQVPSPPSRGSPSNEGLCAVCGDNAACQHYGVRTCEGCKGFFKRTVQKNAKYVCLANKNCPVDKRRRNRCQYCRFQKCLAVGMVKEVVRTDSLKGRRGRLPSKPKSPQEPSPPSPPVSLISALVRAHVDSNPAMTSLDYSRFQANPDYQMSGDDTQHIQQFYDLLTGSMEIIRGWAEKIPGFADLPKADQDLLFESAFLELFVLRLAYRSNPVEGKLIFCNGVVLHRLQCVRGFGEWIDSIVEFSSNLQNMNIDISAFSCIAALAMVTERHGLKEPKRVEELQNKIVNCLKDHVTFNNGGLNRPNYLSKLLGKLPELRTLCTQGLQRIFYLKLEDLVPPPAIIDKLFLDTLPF
From the text: as §1

[6] = system: experimental autoimmune encephalomyelitis (EAE) in C57BL/6 (B6) mice; experiment: EAE in B6 mice (MOG peptide), disease severity score; type: in vivo; settings: IRX4204 50 μg every other day from day 7 to day 20; vs vehicle
Description: Mice were also given 200 ng of pertussis toxin in PBS administered by inter-peritoneal (i.p.) injection on the same day as MOG emulsion injection (day 0) and 2 days later (day 2). […] Mice were scored using the following scale: 0—Mice have no disease, 1—Mice have distal limp tail or rear leg weakness (paresis), 1.5—Mice have distal limp tail and rear leg weakness, 2—Mice have complete limp tail and rear leg weakness, 2.5—Mice have complete limp tail and weakness in both rear legs, 3—Mice have complete limp tail and paralysis in both rear legs, 3.5—Mice have complete limp tail, paralysis in both rear legs, and forelimb weakness. Mice receiving a score of 3.5 were immediately euthanized.

[7] = system: cuprizone+rapamycin demyelination in C57BL/6J mice; experiment: Cuprizone/rapamycin 12-week demyelination, 6-week remyelination treatment; type: in vivo
From the text: All animals were sacrificed after 12 weeks of CR or after further 6 weeks of treatment to evaluate myelin in white matter (corpus callosum) and gray matter (hippocampus and cortex). In addition, the size of myelinated axons was quantified and the large myelinated axons were further assessed by 3D-electron microscopy (3D-EM). A total of 40 animals were included in the study, where all 40 animals received CR demyelination for 12 weeks. After demyelination, a subset (n=10) of animals are sacrificed to serve as controls to assess baseline demyelination. […] Floating brain sections are immunostained with myelin prolipid protein (PLP) to visualize and quantify myelin in gray matter, hippocampus (FIG. 16A) and cortex (FIG. 16B).

[8] = CNS, restimulation with PMA/Ionomycin, 200 μg/day vs vehicle

SMILES: N[C@@H](Cc1cc(I)c(Oc2ccc(O)c(I)c2)c(I)c1)C(=O)O [Compound T3, triiodothyronine, reference compound]
- oligodendrocyte production (EGFP+ oligodendrocytes) [1]: clear dose-responses

SMILES: CC(/C=C/[C@@H]1C[C@]1(C)c1ccc2c(c1)C(C)(C)CCC2(C)C)=C\C(=O)O [IRX4204, 3,7-dimethyl-6(S),7(S)-methano,7-[1,1,4,4-tetramethyl-1,2,3,4-tetrahydronaphth-7-yl]2(E),4(E) heptadienoic acid]
- oligodendrocyte production (EGFP+ oligodendrocytes) [1]: clear dose-responses
- symptoms of EAE (disease severity score) (EAE in SJL mice; 50 μg i.p. every other day from day 7 to day 14): significantly reduces the symptoms of EAE
- Death from Disease (EAE in SJL mice; 50 μg i.p. every other day, n=6): 0/6
- activation of LXRα/RXR (LXRα/RXR): not to transactivate; also recorded: does not activate
- infiltration of CD4+ cells in to the CNS [2]: significant reduction
- infiltration of CD11c+ CD11b+ cells (myeloid DC) in to the CNS [2]: significant reduction
- Mbp expression (real-time qPCR of lesion samples) [3]: increase
- Pdgfra expression (real-time qPCR of lesion samples) [3]: increase
- remyelinated axons (ultrastructural analyses of CCP lesions) [3]: more remyelinated axons than vehicle treatment
- Nkx2.2+ oligodendrocyte precursor cells (OPCs) in lesions ([3]; vs vehicle): increased
- density of CC1+ differentiated oligodendrocytes in lesions ([3]; vs vehicle): increased
- density of Olig2+ oligodendrocyte lineage cells in lesions ([3]; vs vehicle): increased
- OPC differentiation into oligodendrocytes (number of EGFP positive cells) [4]: significant increase; also recorded: dose dependent increase
- microglial/macrophage activation (Iba1 staining in CC) ([5]; 6 weeks concurrent treatment, vs vehicle): no difference
- terminal body weights ([5]; ANOVA, vs vehicle): no significant difference
- number of SMI32 positive axonal ovoids in the corpus callosum ([5]; IRX4204 10 mg/kg PO, T4 20 ng/g SQ daily for 6 weeks during CR, vs Vehicle, 10 mg/kg): trend towards decreased number of axonal ovoids but was not statistically different from the Vehicle; also recorded: trend towards decrease in axonal ovoids, but it was statistically not different from vehicle
- mortality during the in-life phase ([5]; mouse, in vivo): no mortality
- decrease in T4 levels compared to vehicle control animals ([5]; terminal blood draws): ~50%
- EAE disease overall (EAE in B6 mice; 50 μg, 100 μg, or 200 μg every day from day 8, vs vehicle): significantly less disease overall
- Co-expression of IFNg and IL-17A by CD4 T cells in CNS (EAE in B6 mice; CNS, 200 μg/day vs vehicle): not significantly different between groups
- total number of infiltrating CD4 T cells in the CNS (EAE in B6 mice; CNS, 200 μg/day vs vehicle): reduced
- IFNγ production by CNS infiltrating lymphocytes (EAE in B6 mice; [8]): significantly reduced
- TNF production by CNS infiltrating lymphocytes (EAE in B6 mice; [8]): significantly reduced
- CCR6 expression on CD4 T cells (EAE in B6 mice; spleen, 200 μg/day vs vehicle): lowered CCR6
- CD4+ CD25hi cells (number) (EAE in B6 mice; spleen, 200 μg/day vs vehicle): reduced
- CD4+ CD25hi cells frequency (EAE in B6 mice; spleen, 200 μg/day vs vehicle): not altered
- CD49d expression on CD4 T cells (EAE in B6 mice; spleen, 200 μg/day vs vehicle): but not CD49d
- total number of effector and memory CD4 T cells (CD44 expression) (EAE in B6 mice; spleen, 200 μg/day vs vehicle): decreased
- total number of recently activated CD4 T cells (CD69 and CD44) (EAE in B6 mice; spleen, 200 μg/day vs vehicle): also decreased
- activation of LXRβ/RXR (LXRβ/RXR): not to transactivate; also recorded: does not activate
- more potent in activating RXR receptors rather than RAR receptors (RXRα): > 1,000 fold
- activation of Nurr1/RXR heterodimer (Nurr1/RXR heterodimer): selectively activates the Nurr1/RXR permissive heterodimer; also recorded: selectively activates RXR-Nurr1 heterodimers
- symptoms of EAE (disease severity score) [6]: significantly reduces the symptoms of EAE
- body weight ([7]; 10 mg/kg PO daily for 6 weeks after 12 weeks CR): no significant difference
- size of myelinated axons in the corpus callosum ([7]; 6 weeks of treatment after 12 weeks CR): significantly increases; also recorded: shift in distribution to larger axon diameter
- size of axons in the upper quartile ([7]; 6 weeks of treatment, 3rd quartile, axons about 0.7 μm, P<0.0001): significant increase

Source: patent US10092535B2, “Treatment of nervous system disorders using combinations of RXR agonists and thyroid hormones” (IO Therapeutics, Inc., priority 2015, dated 2018)
